According to patent US4939133A, “N-substituted-2-hydroxy-α-oxo-benzeneacetamides and pharmaceutical compositions having activity as modulators of the arachidonic acid cascade” (Warner-Lambert Company, priority 1985, dated 1990):
pIC50: −log10 of the molar value.

Target: Human Leukocyte Lipoxygenase
Assay: Human Leukocyte Lipoxygenase Assay (LDA-H / LDAH)
Format: biochemical
Settings: 50% reduction of reaction rate vs control, E -number means X 10^-no.
Procedure: Human Leukocyte Lipoxygenase Assay (LDA-H)
Whole blood is collected from normal volunteers and spun in a refrigerated centrifuge for four minutes at 1°-6° C. at 3800 g. The buffy coat is manually separated and washed twice with chilled 0.83% NH4 Cl and centrifuged at 1000 RPM for ten minutes at 4° C. The white cell is suspended in culture media-EMEM supplemented with 6% Agamma human serum, tricine buffer, and neomycin and recentrifuged at 1000 g to yield a pellet containing the leukocytes used for the preparation of the acetone pentane powder.
The acetone-pentane powder is prepared utilizing a modification of the procedure reported for human platelet lipoxygenase. See Siegel, et al, Arachidonate Metabolism via Lipoxygenase and 12-L-hydroperoxy-5-Eicostetraenoic acid Peroxidase Sensitive to Antiinflammatory Drugs, Proc. Natl. Acad. Sci., USA 77:308, 1980 and D. P. Wallach and V. R. Brown, a novel Preparation of Human Platlet Lipoxygenase, Biochem. Biophys. Acta. 663:361, 1981. Buffy coat prepared above is resuspended in 5-7 volumes of cold 0.1M Tris buffer, pH 7.4 containing 0.154M NaCl. The suspension is centrifuged at 13,300 g for ten minutes at 4° C. The resultant pellet was retained, resuspended in five volumes of cold acetone, recentrifuged at 13,300 g and resuspended in five volumes of cold pentane. The pentane suspension is centrifuged for ten minutes at 13,300 g to give a pellet which is dried in the cold under vacuum with periodic pulverization. The dry powder is stable for several weeks when stored at -88° C.
Enzyme stock solution is prepared in the following manner. About 15 mg of the acetone-pentane powder sis suspended in 4 ml of cold tris buffer (0.1M, pH 7.4), allowed to stand for five minutes, and homogenized thorougly. The homogenate is sonicated three times for 15 seconds each time, diluted to 7 ml with cold tris buffer (0.1M, pH 7.4), and centrifuged at 4° C. for 60 minutes at 13,300 g. The supernatent is retained and diluted to a total of 10 ml with cold tris buffer (0.1M, pH 7.4) to give the stck enzyme solution. Additional dilutions of 2-50 fold are done as necessary to locate optimal enzyme reaction rate in the assay described below.
Substrate solution is prepared at 100 μM or 1.0 μM concentrations of arachidonic acid or linoleic acid in 0.1M tris buffer, pH 9.0 containing 20% ethanol.
The enzyme reaction is followed spectrophotometrically by the appearance of a conjugated diene product at 234 nm. The reaction is monitored at 24° C. using a Gilford Model 2600 spectrophotometer. […] The effects of inhibitors on the reaction are compared with control reactions run under indentical conditions. Routinely, each compounds of the present invention is incubated with the enzyme for five minutes prior to addition of substrate to initiate the reaction. Inhibition expressed as IC50 as molar concentration of the compound required to reduce reaction rate to 50% control.

pIC50: 4.85
Structure (SMILES): COc1ccc(CCc2ccc(NC(=O)c3ccc(C)cc3O)cc2)cc1OC [Example 46, N-[4-[2-(3,4-Dimethoxyphenyl)ethyl]phenyl]-2-hydroxy-4-methylbenzamide]
